# Columns and labels:
# [1] = tested on: HSP90 and BRD4; test: co-Immunoprecipitation of BRD4 with anti-HSP90 antibody in 4T1 cell lysate; type: cell-based, murine; details: 4T1 cells, 10 μM, 2 h
# Procedure: co-Immunoprecipitation assay: 2×10^6 4T1 cells were seeded in T75 cell culture flasks and cultured for 24 h. Then, the medium in the corresponding flasks was replaced with 15 mL of blank medium with DMSO or iHAC (10 μM). Following incubation for another 2 h, the cells were washed with cold PBS twice and digested with 2 mL of trypsin. As for the iDePMP treatment, 1×10^9 iDePLTs were generated as the above engineering method and suspended in 3 mL of PBS containing thrombin (0.5 U/mL), followed by incubation at 37° C. for 0.5 h. The platelet suspensions were evenly divided and subjected to a sequentially combined centrifugation at 5000 g for 5 min and at 11,000 g for 1 min, followed by further centrifugation at 2500 g for 15 min at room temperature. The combined supernatants were supplemented to 12 mL blank medium to treat 4T1 cells in the relevant flasks. After incubation for 6 h, the cells were washed with cold PBS twice and digested with 2 mL of trypsin. The cell pellets were collected through centrifugation at 1200 rpm for 3 min and washed with cold PBS. The final pellets were directly lysed on ice with RIPA buffer containing PMSF (1 mM) and the phosphatase inhibitor cocktail for 30 min. […] The total proteins in the precleared samples were quantified through the BCA assay, and 20 μL of the precleared solution samples were saved as the input samples. […]
# [2] = tested on: HSP90; test: HSP90 expression in cancer cells after iHAC treatment; type: cell-based; details: all the cancer cells, various concentrations
# Description: Immunoblot analysis: Immunoblot analysis was used to evaluate the expression of BRD4, HSP90, HSP90a, and PD-L1 in 4T1, WT MDA-MB-231, HSP90α-KO MDA-MB-231 or PEA-10 cells after various treatments and also served as the detection method for IP or co-IP experiments. The procedures for preparing IP or co-IP samples were indicated in the relevant experimental parts.
# Sample preparation for various cancer cells after free HAC treatment: Various cells, including 4T1, WT MDA-MB-231, HSP90α-KO MDA-MB-231, or PEA-10 cells, were seeded in 6-well culture plates with a density of 5×10^4 cells in each well and cultured for 24 h. Then, if HAI pretreatment was performed, the cells were incubated in the HAI-containing blank medium at different concentrations for 2 h and washed with PBS twice before the following treatments. […]
# General procedures for immunoblot analysis: After a 30-min lysis, the lysates were centrifuged at 10,000 g for 10 minutes at 4° C., and the corresponding supernatants were collected, followed by quantification of the total proteins in the supernatant through the BCA assay. […] Finally, the bands were treated with electrochemiluminescence (ECL) western blot substrate, detected by the iBright™ imaging system and quantified with ImageJ software. […]
structure (smiles),measurement,setting,value
"Cc1sc2c(c1C)C(c1ccc(Cl)cc1)=N[C@@H](CC(=O)NCc1cn(CCCC(=O)N(CC#N)S(=O)(=O)c3ccc(C(=O)NCCCn4c(Sc5cc6c(cc5I)OCO6)nc5c(N)ncnc54)cc3)nn1)c1nnc(C)n1-2 [iHAC, (S)—N-(3-(6-amino-8-((6-iodobenzo[d][1,3]dioxol-5-yl)thio)-9H-purin-9-yl)propyl)-4-(N-(4-(4-((2-(4-(4-chlorophenyl)-2,3,9-trimethyl-6H-thieno[3,2-f][1,2,4]triazolo[4,3-a][1,4]diazepin-6-yl)acetamido)methyl)-1H-1,2,3-triazol-1-yl)butanoyl)-N-(cyanomethyl)sulfamoyl)benzamide]",BRD4 co-precipitated with anti-HSP90 antibody,[1],could considerably enhance the interaction between BRD4 and HSP90
same,HSP90 expression,[2],maintained a relatively stable HSP90 expression

# — US20250327028A1, “ENGINEERED PLATELETS AS TARGETED PROTEIN DEGRADERS” (Wisconsin Alumni Research Foundation, priority 2024, published 2025)
